Measurements taken from US20070248680A1, “Particles for Inactivating Toxins” (Board of Regents, The University of Texas System, priority 2005, published 2007).
“Also recorded” adds a separate entry of the source.

Experiments:
collagen antibody = assay: Removal of collagen antibodies from circulation of collagen-immunized mice; format: in vivo, Balb/C mice; conditions: week 7, one week after intravenous injection of about 2.0 mg particles/0.5 mL; about 100 nanometer NIPA
Description: In still another example, Balb/C mice were immunized with bovine skin collagen following a standard immunization procedure as is known to one of ordinary skill in the art. At one week following immunization, mice began to produce antibodies against collagen. At the end of week 6 as depicted by the arrow in FIGS. 9A and 9B, mice were injected intravenously (via the tail vein) with particles tagged with and without bovine Type I collagen. Intravenous doses were about 2.0 mg particles/0.5 mL. FIGS. 9A and 9B are representative examples showing the in vivo efficacy of specifically tagged particles and their ability to remove a particular unwanted antibodies from circulation after allowing the unwanted antibody concentration to accumulate for six weeks. […] Histologic analyses of tissue samples collected from some representative animals, including samples from the kidneys, lung, liver, brain, intestines, heart and spleen, were examined for particles. […] These animals were also able to degrade the particle preparation (predominantly in the liver) and eliminate by-products of the preparation via hydrolysis (data not shown).
In FIG. 9B, the conditions as described for FIG. 9A were repeated using particle preparations tagged comprising HPC particles of 1-5 micrometers (typical diameter) conjugated with collagen (HPC-collagen) or untagged particles (HPC) injected into mice.

BSA antibody = assay: Removal of free BSA antibody from serum of BSA-immunized mice (ELISA); format: in vivo, Balb/C mice; conditions: for effect on free and circulating BSA antibody in serum / time to removal of circulating BSA antibodies from serum: tail vein injection; for effect on free and circulating BSA antibody in serum: NIPA about 5 micrometers, PLLA about 10 micrometers, HA about 250 nanometers; for time to removal of circulating BSA antibodies from serum: FIG. 8B
Description: Another feature of the present invention is that selective tagging of particles of the present invention provides for the removal of select and specific unwanted products or toxins (e.g., unwanted proteins or antibodies) from a host. […] Following injection, mice (at least five mice per group) were sacrificed beginning on day one and continued to day 21. Serum samples from each mouse were recovered via retro-orbital blood collection. Sera was then used to measure the amount of free BSA antibody in the blood by standard enzyme-linked immuno-sorbent assay. FIGS. 8A and 8B are representative examples of the efficacy of specifically tagged particles, in which tagged particles are capable of removing a specific antibody present in serum.

BSA antibodies = assay: Protein adsorption from BSA antisera onto particles, SDS-PAGE of eluted proteins; format: binding, Balb/C mice; conditions: serum of BSA-immunized mice, about 2 hours incubation, about 5 micrometer particles
Description: Another feature is that a tagged particle of the present invention may specifically recognize proteins or other host components of interest and as desired. For example, tagged particles were made to recover or eliminate BSA antibodies from immunized animals. First, Balb/C mice were immunized with bovine serum albumin (BSA) protein for four weeks to trigger BSA antibody production. Two weeks later, mice were sacrificed and their serum was recovered for analyses. […] After incubation for at least about 2 hours, particles were recovered by centrifugation. From a portion of each sample of recovered particles, proteins were eluted. Particles and eluted proteins were analyzed by SDS-PAGE gel electrophoresis to identify proteins that had adsorbed to the particles.
In FIG. 6, lane 1 is diluted mouse sera in PBS at concentration of 1 mg/mL; lanes 2, 5 and 7 depict proteins eluted from NIPA microparticles preincubated with antisera from three different mice; lanes 3, 4 and 6 depict proteins eluted from NIPA-BSA microparticles preincubated with antisera from three different mice. Lanes 2 and 3 are samples from a first mouse, lanes 4 and 5 are samples from a second mouse, and lanes 6 and 7 are samples from a third mouse.
In another example depicting the specific recognition of tagged particles, a similar immunization strategy was used. […] Eluted proteins were analyzed using SDS-PAGE gel electrophoresis. […]

[1] = Persistence of FITC-BSA tagged particles in blood after intravenous introduction (fluorometry); format: in vivo; conditions: Balb/C mice, about 5.0 micrometer particles
Description: One feature of the present invention is that a particle preparation of the present invention is capable of remaining in the host for a length of time, longer than proteins, antibodies, vaccines, or antimicrobials are known to last in a mammalian host. […] Particle were tagged by conjugating with FITC-labeled bovine serum albumin (BSA) protein. […] The amount of BSA present in each sample was assessed by fluorometry. The tagged particles in FIG. 5A were FITC-BSA conjugated to NIPA particles of about 5.0 micrometers (typical diameter). […] In addition, greater than 20% of the BSA-NIPA particles were still present in the blood after two weeks.

Substance	effect on free and circulating BSA antibody in serum (BSA antibody)	time to removal of circulating BSA antibodies from serum (BSA antibody)	particles still present in the blood after two weeks [1]	further results
NP-Collagen: NIPA particles (approximately 100 nanometers) conjugated with bovine Type I collagen	–	–	–	reduction of collagen antibody concentration (collagen antibody): greater than 75%
bovine serum albumin [BSA, reference compound]	did little to effect; also recorded: none of the untagged particles (HA, NIPA, PLLA) or BSA alone (BSA) when injected into a host were able to significantly effect	–	–	–
PLLA-BSA: PLLA microparticles (approximately 10 micrometer) tagged with BSA	–	less than a week	–	–
HA-BSA: HA nanoparticles (approximately 250 nanometers) tagged with BSA	–	less than a week	–	–
BSA-NIPA: FITC-BSA conjugated to NIPA particles of about 5.0 micrometers typical diameter	virtually complete by day 2	less than a week	greater than 20%	proteins adsorbed to or recognized by particles (BSA antibodies; listed as BSA-NIPA microparticles): recognized a number of proteins, especially those representing immunoglobulin G; proteins adsorbed to or recognized by particles (BSA antibodies; listed as NIPA-BSA microparticles): recognized more proteins; free BSA antibodies in the serum (BSA antibody; tail vein injection at 6 weeks, about 5 micrometer particles, FIG. 8A): < 5%; time remained in the circulation ([1]; FIG. 5A): at least 2 weeks
BSA-HPC: HPC particles (approximately 5.0 micrometers) conjugated to BSA	–	–	greater than 20%	–
